Experimental data published in patent US12655116B2, “Substituted isophthalic acid diamides” (Bayer Aktiengesellschaft, priority 2020, dated 2026).

What was measured:
[1] = system: DIGSA; assay: Pre-emergence herbicidal action against DIGSA; type: in vivo, Digitaria sanguinalis
Outline: (§1)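 Sandy loam pots, seeds covered with soil, then surface-treated with WP or EC formulations at 600–800 l/ha water plus 0.2% wetting agent. Greenhouse, 3 weeks. Percent damage vs untreated controls.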

[2] = system: AVEFA; assay: Post-emergence herbicidal action against AVEFA; type: in vivo, Avena fatua; details: visual assessment about 3 weeks after treatment, 100% = plants have died, 0% = like control plants
Outline: (§2)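 Herbicidal action is a visual percentage rating (0% = as untreated control, 100% = plants dead) made roughly 3 weeks after treatment. Plants were grown in sandy loam in the greenhouse and treated at the one-leaf stage, 2 to 3 weeks post-sowing. Treatment was a foliar spray of wettable-powder or emulsion-concentrate formulations at 600 to 800 l/ha water plus 0.2% wetting agent.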

[3] = system: DIGSA; assay: Post-emergence herbicidal action against DIGSA; type: in vivo, Digitaria sanguinalis; details: for Post-emergence action against DIGSA in %: 5 g/ha; for Post-emergence action against DIGSA: 20 g/ha
Outline: as §2

[4] = system: ECHCG; assay: Pre-emergence herbicidal action against ECHCG; type: in vivo, Echinochloa crus-galli
Outline: as §1

[5] = system: PHBPU; assay: Post-emergence herbicidal action against PHBPU; type: in vivo, Pharbitis purpurea
Outline: as §2

[6] = system: ALOMY; assay: Pre-emergence herbicidal action against ALOMY; type: in vivo, Alopecurus myosuroides; details: 80 g/ha, pre-emergence, scored visually after 3 weeks vs untreated controls (100% = plants have died, 0% = like control plants)
Outline: as §1

[7] = system: HORMU; assay: Post-emergence herbicidal action against HORMU; type: in vivo, Hordeum murinum; details: dosage 20 g/ha
Outline: as §2

[8] = system: HORMU; assay: Pre-emergence herbicidal action against HORMU; type: in vivo, Hordeum murinum; details: 80 g/ha, pre-emergence
Outline: as §1

[9] = system: LOLRI; assay: Pre-emergence herbicidal action against LOLRI; type: in vivo, Lolium rigidum; details: 80 g/ha
Outline: as §1

[10] = system: MATIN; assay: Post-emergence herbicidal action against MATIN; type: in vivo, Matricaria inodora
Outline: as §2

[11] = system: POLCO; assay: Pre-emergence herbicidal action against POLCO; type: in vivo, Polygonum convolvulus
Outline: as §1

[12] = system: ECHCG; assay: Post-emergence herbicidal action against ECHCG; type: in vivo, Echinochloa crus-galli
Outline: as §2

[13] = system: AMARE; assay: Pre-emergence herbicidal action against AMARE; type: in vivo, Amaranthus retroflexus
Outline: as §1

[14] = system: PHBPU; assay: Pre-emergence herbicidal action against PHBPU; type: in vivo, Pharbitis purpurea; details: dosage 80 g/ha
Outline: as §1

[15] = system: VERPE; assay: Post-emergence herbicidal action against VERPE; type: in vivo, Veronica persica; details: 20 g/ha
Outline: as §2

[16] = system: AMARE; assay: Post-emergence herbicidal action against AMARE; type: in vivo, Amaranthus retroflexus; details: 20 g/ha, visual assessment about 3 weeks after treatment, 100% = plants have died, 0% = like control plants
Outline: as §2

[17] = system: ABUTH; assay: Post-emergence herbicidal action against ABUTH; type: in vivo, Abutilon theophrasti; details: visual assessment about 3 weeks after treatment vs untreated controls
Outline: as §2

[18] = system: AVEFA; assay: Pre-emergence herbicidal action against AVEFA; type: in vivo, Avena fatua; details: 80 g/ha, pre-emergence
Outline: as §1

[19] = system: ABUTH; assay: Pre-emergence herbicidal action against ABUTH; type: in vivo, Abutilon theophrasti; details: for Pre-emergence action against ABUTH (herbicidal activity): 80 g/ha, scored visually after 3 weeks vs untreated controls (100% = plants have died, 0% = like control plants); for Pre-emergence action against ABUTH (herbicidal activity in percent): dosage 20 g/ha, scored visually after 3 weeks vs untreated controls, 100% = plants have died, 0% = like control plants
Outline: as §1

[20] = system: VIOTR; assay: Pre-emergence herbicidal action against VIOTR; type: in vivo, Viola tricolor
Outline: as §1

[21] = system: SETVI; assay: Pre-emergence herbicidal action against SETVI; type: in vivo, Setaria viridis
Outline: as §1

[22] = system: VIOTR; assay: Post-emergence herbicidal action against VIOTR; type: in vivo, Viola tricolor
Outline: as §2

[23] = system: STEME; assay: Post-emergence herbicidal action against STEME; type: in vivo, Stellaria media
Outline: as §2

[24] = system: ALOMY; assay: Post-emergence herbicidal action against ALOMY; type: in vivo, Alopecurus myosuroides; details: dosage 20 g/ha, visual assessment about 3 weeks after treatment vs untreated controls
Outline: as §2

[25] = system: SETVI; assay: Post-emergence herbicidal action against SETVI; type: in vivo, Setaria viridis
Outline: as §2

[26] = system: STEME; assay: Pre-emergence herbicidal action against STEME; type: in vivo, Stellaria media
Outline: as §1

[27] = system: MATIN; assay: Pre-emergence herbicidal action against MATIN; type: in vivo, Matricaria inodora
Outline: as §1

[28] = system: VERPE; assay: Pre-emergence herbicidal action against VERPE; type: in vivo, Veronica persica; details: dosage 80 g/ha
Outline: as §1

[29] = 20 g/ha, scored visually after 3 weeks vs untreated controls, 100% = plants have died, 0% = like control plants
[30] = 80 g/ha, scored visually after 3 weeks vs untreated controls (100% = plants have died, 0% = like control plants)

CCNC(=O)c1c(C(F)(F)F)ccc(C(=O)Nc2nnco2)c1Cl [Example 5-117]
Pre-emergence action against DIGSA in % ([1]; dosage 20 g/ha): 100%
Pre-emergence action against DIGSA in % ([1]; dosage 80 g/ha): 100%
Post-emergence action at 5 g/ha against AVEFA in % ([2]; 5 g/ha): 80%
Post-emergence action at 20 g/ha against AVEFA in % [2]: 90%
Post-emergence action against DIGSA in % [3]: 90%
Post-emergence action against DIGSA [3]: 90%
Pre-emergence action against ECHCG in % ([4]; 20 g/ha): 80%
Pre-emergence action against ECHCG in % ([4]; 80 g/ha): 100%
Post-emergence action against PHBPU in % ([5]; dosage 5 g/ha): 80%
Post-emergence action against PHBPU in % ([5]; dosage 20 g/ha): 90%
Pre-emergence action against ALOMY (herbicidal activity) [6]: 90%
Post-emergence action against HORMU in % [7]: 80%
Pre-emergence action against HORMU in % [8]: 80%
Pre-emergence action against LOLRI in % [9]: 80%
Post-emergence action against MATIN in % ([10]; dosage 5 g/ha): 80%
Post-emergence action against MATIN in % ([10]; dosage 20 g/ha): 90%
Pre-emergence action against POLCO in % ([11]; dosage 80 g/ha): 80%
Post-emergence action against ECHCG in % ([12]; dosage 5 g/ha): 80%
Post-emergence action against ECHCG in % ([12]; dosage 20 g/ha): 80%
Pre-emergence action against AMARE in % [13, 29]: 90%
Pre-emergence action against AMARE in % [13, 30]: 90%
Pre-emergence action against PHBPU in % [14]: 100%
Post-emergence action against VERPE in % [15]: 80%
Post-emergence action at 20 g/ha against AMARE in % [16]: 100%
Post-emergence action against ABUTH in % ([17]; dosage 5 g/ha): 80%
Post-emergence action against ABUTH in % ([17]; dosage 20 g/ha): 90%
Pre-emergence action against AVEFA in % [18]: 90%
Pre-emergence action against ABUTH (herbicidal activity) [19]: 100%
Pre-emergence action against ABUTH (herbicidal activity in percent) [19]: 100%
Pre-emergence action against VIOTR in % ([20]; dosage 20 g/ha): 100%
Pre-emergence action against VIOTR in % ([20]; dosage 80 g/ha): 100%
Pre-emergence action against SETVI in % ([21]; dosage 80 g/ha): 90%
Post-emergence action against VIOTR in % ([22]; 5 g/ha): 90%
Post-emergence action against VIOTR in % ([22]; 20 g/ha): 100%
Post-emergence action against STEME in % ([23]; 20 g/ha): 100%
Post-emergence action against STEME in % ([23]; dosage 5 g/ha): 100%
Post-emergence action against ALOMY in % [24]: 80%
Post-emergence action against SETVI in % ([25]; dosage 5 g/ha): 100%
Post-emergence action against SETVI in % ([25]; dosage 20 g/ha): 100%
Pre-emergence action against STEME in % ([26]; dosage 20 g/ha): 90%
Pre-emergence action against STEME in % ([26]; dosage 80 g/ha): 90%
Pre-emergence action against MATIN in % ([27]; dosage 20 g/ha): 90%
Pre-emergence action against MATIN in % ([27]; dosage 80 g/ha): 100%

CCn1nnnc1NC(=O)c1ccc(C(F)(F)F)c(C(=O)NC)c1C [Example 2-25]
Pre-emergence action against DIGSA in % ([1]; dosage 20 g/ha): 100%
Pre-emergence action against DIGSA in % ([1]; dosage 80 g/ha): 100%
Post-emergence action at 20 g/ha against AVEFA in % [2]: 100%
Post-emergence action against DIGSA in % [3]: 80%
Post-emergence action against DIGSA [3]: 90%
Pre-emergence action against ECHCG in % ([4]; 80 g/ha): 100%
Post-emergence action against PHBPU in % ([5]; dosage 5 g/ha): 80%
Post-emergence action against PHBPU in % ([5]; dosage 20 g/ha): 90%
Pre-emergence action against ALOMY (herbicidal activity) [6]: 90%
Post-emergence action against HORMU in % [7]: 80%
Pre-emergence action against HORMU in % [8]: 90%
Pre-emergence action against LOLRI in % [9]: 80%
Post-emergence action against MATIN in % ([10]; dosage 5 g/ha): 90%
Post-emergence action against MATIN in % ([10]; dosage 20 g/ha): 100%
Pre-emergence action against POLCO in % ([11]; dosage 20 g/ha): 100%
Pre-emergence action against POLCO in % ([11]; dosage 80 g/ha): 100%
Post-emergence action against ECHCG in % ([12]; dosage 20 g/ha): 80%
Pre-emergence action against AMARE in % [13, 29]: 100%
Pre-emergence action against AMARE in % [13, 30]: 100%
Pre-emergence action against PHBPU in % [14]: 80%
Post-emergence action against VERPE in % [15]: 90%
Post-emergence action against ABUTH in % ([17]; dosage 5 g/ha): 100%
Post-emergence action against ABUTH in % ([17]; dosage 20 g/ha): 100%
Pre-emergence action against AVEFA in % [18]: 100%
Pre-emergence action against ABUTH (herbicidal activity) [19]: 100%
Pre-emergence action against ABUTH (herbicidal activity in percent) [19]: 100%
Pre-emergence action against VERPE in % [28]: 100%
Pre-emergence action against VIOTR in % ([20]; dosage 80 g/ha): 100%
Pre-emergence action against SETVI in % ([21]; dosage 20 g/ha): 100%
Pre-emergence action against SETVI in % ([21]; dosage 80 g/ha): 100%
Post-emergence action against VIOTR in % ([22]; 5 g/ha): 80%
Post-emergence action against VIOTR in % ([22]; 20 g/ha): 90%
Post-emergence action against STEME in % ([23]; 20 g/ha): 100%
Post-emergence action against STEME in % ([23]; dosage 5 g/ha): 90%
Post-emergence action against ALOMY in % [24]: 90%
Post-emergence action against SETVI in % ([25]; dosage 20 g/ha): 80%
Pre-emergence action against STEME in % ([26]; dosage 20 g/ha): 90%
Pre-emergence action against STEME in % ([26]; dosage 80 g/ha): 100%
Pre-emergence action against MATIN in % ([27]; dosage 20 g/ha): 100%
Pre-emergence action against MATIN in % ([27]; dosage 80 g/ha): 100%
